For four compounds, IC50 results are on record in publication PMC2174406 (Environmental Health Perspectives, 2007).

Each structure is given as a SMILES string.

In one experiment the target is transthyretin (TTR) (Homo sapiens, UniProt P02766). The experiment is described as follows: […]T4 displacement. Format: binding. The conditions noted are these: cited from earlier work.
The target of another experiment is T1, thyroid peroxidase (TPO) (Homo sapiens, UniProt P07202).
T1 sequence (P07202 19-933): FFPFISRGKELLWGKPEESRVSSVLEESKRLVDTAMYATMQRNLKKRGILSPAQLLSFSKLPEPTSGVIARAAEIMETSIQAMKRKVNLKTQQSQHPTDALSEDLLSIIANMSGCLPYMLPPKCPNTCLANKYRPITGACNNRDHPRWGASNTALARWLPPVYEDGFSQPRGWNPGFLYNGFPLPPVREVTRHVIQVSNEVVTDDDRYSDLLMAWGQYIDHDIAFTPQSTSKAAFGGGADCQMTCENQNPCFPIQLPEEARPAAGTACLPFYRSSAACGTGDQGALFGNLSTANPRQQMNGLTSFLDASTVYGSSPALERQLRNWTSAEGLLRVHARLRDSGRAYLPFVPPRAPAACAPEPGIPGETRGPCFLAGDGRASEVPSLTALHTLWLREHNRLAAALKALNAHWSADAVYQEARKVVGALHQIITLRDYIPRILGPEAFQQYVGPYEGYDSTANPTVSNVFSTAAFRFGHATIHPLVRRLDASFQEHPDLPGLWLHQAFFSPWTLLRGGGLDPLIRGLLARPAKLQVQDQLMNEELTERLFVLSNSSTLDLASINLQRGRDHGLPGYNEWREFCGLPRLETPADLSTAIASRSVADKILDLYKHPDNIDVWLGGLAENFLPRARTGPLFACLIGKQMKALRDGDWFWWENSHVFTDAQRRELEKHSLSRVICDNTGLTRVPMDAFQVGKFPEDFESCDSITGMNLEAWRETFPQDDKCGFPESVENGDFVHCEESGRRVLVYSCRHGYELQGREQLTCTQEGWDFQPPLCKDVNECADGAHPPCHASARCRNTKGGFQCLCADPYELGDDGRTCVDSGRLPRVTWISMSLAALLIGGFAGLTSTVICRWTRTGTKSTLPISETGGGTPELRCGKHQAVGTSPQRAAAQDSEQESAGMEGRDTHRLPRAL
The experiment is described as follows: guaiacol oxidation assay with digitonin-extracted recombinant TPO. The format is cell-based.

A word on the IC50: it is the concentration at which inhibition is half-maximal.

Consider `O=c1c(-c2ccc(O)cc2)coc2cc(O)ccc12` [daidzein], for which, on transthyretin (TTR), the IC50 is 1800 nM. In the case of `CC(C)(c1ccc(O)cc1)c1ccc(O)cc1` [bisphenol A], the IC50 result at thyroid peroxidase (TPO) is “the industrial chemicals 4-NP and BPA also inhibited TPO”. For the compound `COc1cc2c(=O)c(-c3ccc(O)cc3)coc2cc1O` [glycitein], the IC50 on transthyretin (TTR) is 200 nM.

On to `O=c1c(-c2ccc(O)cc2)coc2cc(O)cc(O)c12` [genistein], for which the half-maximal inhibitory concentration (IC50) on transthyretin (TTR) was 70 nM.
